In patent publication US20260102501A1, “ANTI-CANCER NUCLEAR HORMONE RECEPTOR-TARGETING COMPOUNDS” (Nuvation Bio Inc., priority 2022, published 2026):
Positions count from the first letter of the chain named. Read-outs that look alike come from different tables or passages of the source.

How the values were obtained:
[1] = target: T1, Progesterone PR-B receptors from human breast carcinoma T47D cells (Homo sapiens, UniProt P06401); assay: PR binding assay ([3H] Progesterone displacement)
T1 sequence (P06401 1-933): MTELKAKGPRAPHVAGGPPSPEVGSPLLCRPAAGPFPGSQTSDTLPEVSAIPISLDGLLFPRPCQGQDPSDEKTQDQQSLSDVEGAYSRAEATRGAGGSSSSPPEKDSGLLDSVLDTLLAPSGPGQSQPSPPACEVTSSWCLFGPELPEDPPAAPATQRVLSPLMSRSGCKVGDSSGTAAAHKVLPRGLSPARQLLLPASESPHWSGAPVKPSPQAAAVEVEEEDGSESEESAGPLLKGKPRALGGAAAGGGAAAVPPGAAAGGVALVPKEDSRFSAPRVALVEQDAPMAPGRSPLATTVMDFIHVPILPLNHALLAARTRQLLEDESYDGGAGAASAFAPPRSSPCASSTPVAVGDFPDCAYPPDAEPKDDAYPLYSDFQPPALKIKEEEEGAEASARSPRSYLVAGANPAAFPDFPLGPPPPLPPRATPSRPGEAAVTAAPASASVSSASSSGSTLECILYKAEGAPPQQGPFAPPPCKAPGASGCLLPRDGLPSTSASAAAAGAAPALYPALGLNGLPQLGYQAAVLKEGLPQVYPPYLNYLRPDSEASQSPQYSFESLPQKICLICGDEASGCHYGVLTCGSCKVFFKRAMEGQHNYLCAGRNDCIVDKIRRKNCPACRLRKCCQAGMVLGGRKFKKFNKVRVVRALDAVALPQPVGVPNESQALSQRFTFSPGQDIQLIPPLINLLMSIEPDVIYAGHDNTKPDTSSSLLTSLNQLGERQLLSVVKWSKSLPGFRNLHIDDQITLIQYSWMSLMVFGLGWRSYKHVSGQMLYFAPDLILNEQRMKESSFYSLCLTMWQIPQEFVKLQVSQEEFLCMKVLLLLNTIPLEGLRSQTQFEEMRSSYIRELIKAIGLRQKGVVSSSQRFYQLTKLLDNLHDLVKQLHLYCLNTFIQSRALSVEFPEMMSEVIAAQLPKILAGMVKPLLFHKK

[2] = target: T2, AR (cytosol from LnCaP cells) (Homo sapiens, UniProt P10275, T878A); assay: AR binding assay (3H-R1881 displacement)
T2 sequence (P10275 1-920 T878A): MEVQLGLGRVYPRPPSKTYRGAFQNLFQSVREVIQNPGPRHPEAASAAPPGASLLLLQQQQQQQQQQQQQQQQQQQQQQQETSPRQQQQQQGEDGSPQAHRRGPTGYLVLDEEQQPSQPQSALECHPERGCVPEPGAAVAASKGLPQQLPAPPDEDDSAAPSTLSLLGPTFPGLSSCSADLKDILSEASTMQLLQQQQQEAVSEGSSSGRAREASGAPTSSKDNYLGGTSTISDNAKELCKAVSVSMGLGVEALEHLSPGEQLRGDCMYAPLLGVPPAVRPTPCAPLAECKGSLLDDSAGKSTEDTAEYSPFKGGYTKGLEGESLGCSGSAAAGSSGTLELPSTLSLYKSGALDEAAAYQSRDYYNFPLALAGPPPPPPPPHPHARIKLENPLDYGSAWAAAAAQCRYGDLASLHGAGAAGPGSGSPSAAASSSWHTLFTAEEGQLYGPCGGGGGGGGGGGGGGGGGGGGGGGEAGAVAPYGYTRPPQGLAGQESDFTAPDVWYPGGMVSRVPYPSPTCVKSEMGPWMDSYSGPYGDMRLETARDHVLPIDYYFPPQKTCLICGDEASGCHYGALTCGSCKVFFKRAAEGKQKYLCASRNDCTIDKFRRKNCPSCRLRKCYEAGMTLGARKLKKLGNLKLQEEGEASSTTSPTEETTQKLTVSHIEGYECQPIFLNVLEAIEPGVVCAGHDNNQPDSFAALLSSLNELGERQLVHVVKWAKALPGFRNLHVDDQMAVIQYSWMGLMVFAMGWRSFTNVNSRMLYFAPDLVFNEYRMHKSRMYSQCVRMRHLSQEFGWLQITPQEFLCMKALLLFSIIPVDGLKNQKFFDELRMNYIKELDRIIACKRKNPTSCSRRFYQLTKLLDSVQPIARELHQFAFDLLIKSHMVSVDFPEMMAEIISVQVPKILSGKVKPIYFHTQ
Description: The plate was then centrifuged at 3000 rpm for 30 minutes at 4° C.

LNCap cells = assay: Cell viability assay (CellTiterGlo); type: cell-based; settings: Homo sapiens, 144 h
22Rv1 cells = assay: Cell viability assay (CellTiterGlo); settings: Homo sapiens, 22Rv1, 144 h, read-out: 22RV1 (IC50, nM)
Description: Cell viability assay: LNCap, 22Rv1, MCF7, MDAMB361, T47D, and IEC6 cells were seeded at a density of 500-2000 cells/well in 96 well plates, and a ‘T0’ (timepoint 0) was included along with the assay plate. The plates were then incubated at 37° C., 5% CO2 in a cell culture incubator overnight. On the next day, the ‘T0’ plate was assayed using CellTiterGlo (Promega, Inc) according to the manufacturer's instructions. The appropriate compounds were diluted in DMSO and added to the assay plate (final DMSO concentration of 0.1-0.2%) on the next day. The assay plates were incubated for 6 days at 37° C., 5% CO2. After the incubation period, the plates were assayed using CellTiterGlo (Promega, Inc) according to the manufacturer's instructions and luminescence was read on the En Vision plate reader. […] GraphPadPrism was used to analyze the data and determine GI50/IC50 values.

[3] = target: T3, full-length androgen receptor (HEK293 cells stably expressing) (Homo sapiens, UniProt P10275); assay: AR antagonism assay (luciferase reporter)
T3 sequence (P10275 1-920): T2 sequence (P10275 1-920 T878A) with A878T

[4] = target: T4, ligand binding domain of the glucocorticoid receptor (HEK293 cells stably expressing) (Homo sapiens, UniProt P04150); assay: GR antagonism assay (luciferase reporter)
T4 sequence (P04150 524-758 limits assumed): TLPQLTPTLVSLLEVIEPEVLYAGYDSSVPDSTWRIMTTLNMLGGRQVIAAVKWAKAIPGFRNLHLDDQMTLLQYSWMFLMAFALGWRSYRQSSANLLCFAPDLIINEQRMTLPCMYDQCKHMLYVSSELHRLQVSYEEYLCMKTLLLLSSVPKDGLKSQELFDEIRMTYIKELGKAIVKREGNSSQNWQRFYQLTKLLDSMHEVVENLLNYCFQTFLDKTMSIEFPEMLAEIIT
Description: HEK293 cells stably expressing the ligand binding domain of the glucocorticoid receptor were seeded at a density of 40000 cells/well in the assay plate. The assay plate was then incubated at 37° C., 5% CO2 for 30 minutes. Dexamethasone was added to the assay plate at 1.5 nM final concentration and the assay plate incubated at 37° C., 5% CO2 for 20 h. After the incubation period, Dual-glo luciferase reagent was added to the assay plate and mixed at room temperature for 20 minutes on an orbital shaker, before reading out on the En Vision plate reader. 50 μL of Stop & Glo reagent was added to assay plate, mixed at room temperature for 20 minutes, and read on the Envision plate reader.

IEC6 cells = assay: Cell viability assay (CellTiterGlo); settings: Rattus norvegicus, IEC-6, 144 h, read-out: IEC-6 (IC50, nM)
T47D cells = assay: Cell viability assay (CellTiterGlo); type: cell-based; settings: Homo sapiens, 144 h, read-out: T47D (IC50, nM)
[5] = target: T5, GR (cytosol from IM-9 cells) (Homo sapiens, UniProt P04150); assay: GR binding assay (3H-Dexamethasone displacement)
T5 sequence (P04150 1-777): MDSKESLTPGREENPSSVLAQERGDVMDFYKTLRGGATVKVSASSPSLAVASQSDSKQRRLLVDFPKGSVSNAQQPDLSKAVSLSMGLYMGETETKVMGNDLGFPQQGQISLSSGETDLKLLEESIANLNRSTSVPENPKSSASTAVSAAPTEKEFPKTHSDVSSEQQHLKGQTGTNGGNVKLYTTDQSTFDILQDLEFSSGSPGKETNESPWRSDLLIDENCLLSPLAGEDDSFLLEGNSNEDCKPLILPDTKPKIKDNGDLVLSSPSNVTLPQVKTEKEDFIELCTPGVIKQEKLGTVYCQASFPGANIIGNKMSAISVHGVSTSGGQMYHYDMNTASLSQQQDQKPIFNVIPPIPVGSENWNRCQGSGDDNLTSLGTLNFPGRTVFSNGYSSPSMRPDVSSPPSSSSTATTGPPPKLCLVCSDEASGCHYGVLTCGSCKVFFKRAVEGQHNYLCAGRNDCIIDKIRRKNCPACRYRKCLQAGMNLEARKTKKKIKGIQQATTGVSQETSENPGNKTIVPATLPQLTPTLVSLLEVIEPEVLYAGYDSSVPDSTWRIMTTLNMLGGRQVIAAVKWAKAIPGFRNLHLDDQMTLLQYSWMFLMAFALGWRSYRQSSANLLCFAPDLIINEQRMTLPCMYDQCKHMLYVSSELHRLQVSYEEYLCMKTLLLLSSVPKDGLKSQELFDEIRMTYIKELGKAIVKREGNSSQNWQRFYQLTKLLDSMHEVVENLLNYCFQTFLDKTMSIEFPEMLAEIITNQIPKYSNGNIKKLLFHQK

[6] = 6 days incubation, CellTiterGlo, read-out: LNCap (IC50)

Row | Compound | IC50 [1] [nM] | IC50 [2] [nM] | IC50 (LNCap cells; [6]) [nM] | IC50 (22Rv1 cells) [nM] | IC50 [3] [nM] | IC50 [4] [nM] | IC50 (IEC6 cells) [nM] | IC50 (LNCap cells; read-out: LNCap (IC50, nM)) [nM] | IC50 (T47D cells) [nM] | IC50 [5] [nM]
1 | CC[C@@]1(O)C(=O)OCc2c1cc1n(c2=O)Cc2c-1nc1cc(F)c(C)c3c1c2[C@@H](NC(=O)COC(=O)N1CCN(CCCCCCN(C)c2ccc([C@H]4C[C@@]5(C)[C@@H](CC[C@]5(OC(C)=O)C(C)=O)[C@@H]5CCC6=CC(=O)CCC6=C54)cc2)CC1)CC3 [Compound 42, 2-(((1S,9S)-9-ethyl-5-fluoro-9-hydroxy-4-methyl-10,13-dioxo-2,3,9,10,13,15-hexahydro-1H,12H-benzo[de]pyrano[3′,4′:6,7]indolizino[1,2-b]quinolin-1-yl)amino)-2-oxoethyl 4-(6-((4-((8S,11R,13S,14S,17R)-17-acetoxy-17-acetyl-13-methyl-3-oxo-2,3,6,7,8,11,12,13,14,15,16,17-dodecahydro-1H-cyclopenta[a]phenanthren-11-yl)phenyl)(methyl)amino)hexyl)piperazine-1-carboxylate] | < 10 | 10 to 100 | 101 to 1000 | 101 to 1000 | 101 to 1000 | 10 to 100 | > 1000 | – | – | –
2 | CC[C@@]1(O)C(=O)OCc2c1cc1n(c2=O)Cc2cc3c(CN4CCN(CCCCCCC5CCN(c6ccc(C(=O)N[C@H]7CC[C@H](N(C)c8ccc(C#N)c(Cl)c8)CC7)nn6)CC5)CC4)c(O)ccc3nc2-1 [Compound 56, N-((1r,4r)-4-((3-chloro-4-cyanophenyl)(methyl)amino)cyclohexyl)-6-(4-(6-(4-(((S)-4-ethyl-4,9-dihydroxy-3,14-dioxo-3,4,12,14-tetrahydro-1H-pyrano[3′,4′:6,7]indolizino[1,2-b]quinolin-10-yl)methyl)piperazin-1-yl)hexyl)piperidin-1-yl)pyridazine-3-carboxamide] | 10 to 100 | 101 to 1000 | 10 to 100 | 10 to 100 | 101 to 1000 | – | 101 to 1000 | – | – | –
3 | CC#C[C@]1(O)CC[C@H]2[C@@H]3CCC4=CC(=O)CCC4=C3[C@@H](c3ccc(N(C)CCCCCCN4CCN(C(=O)Oc5ccc6nc7c(cc6c5CN(C)C)Cn5c-7cc6c(c5=O)COC(=O)[C@]6(O)CC)CC4)cc3)C[C@@]21C [Compound 29, (S)-10-((Dimethylamino)methyl)-4-ethyl-4-hydroxy-3,14-dioxo-3,4,12,14-tetrahydro-1H-pyrano[3′,4′:6,7]indolizino[1,2-b]quinolin-9-yl 4-(6-((4-((8S,11R,13S,14S,17S)-17-hydroxy-13-methyl-3-oxo-17-(prop-1-yn-1-yl)-2,3,6,7,8,11,12,13,14,15,16,17-dodecahydro-1H-cyclopenta[a]phenanthren-11-yl)phenyl)(methyl)amino)hexyl)piperazine-1-carboxylate] | – | – | – | – | – | < 10 | 101 to 1000 | 10 to 100 | 10 to 100 | < 10
